Our source for the TGI values is PubChem BioAssay (NCI).

Among the test systems are ACHN renal; BT-549 breast; HL-60(TB) leukemia; LOX IMVI melanoma; MALME-3M melanoma; MDA-MB-231 breast; MDA-MB-435; NCI-H23 lung; NCI-H460 lung; NCI-H522 lung; SF-539 CNS; SK-MEL-2 melanoma; SK-OV-3 ovarian; SNB-75 CNS.
Experiment in all cases: NCI tumour cell line growth inhibition, 48 h

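Five concentrations, 48 hours, 96-well plates. At the TGI there is no net growth.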

With `S=c1[nH]nc(NNc2ccccc2)n1Nc1ccccc1`, the TGI with ACHN renal was above 100 µM; with BT-549 breast, above 100 µM; with HL-60(TB) leukemia, 57.2 µM; with LOX IMVI melanoma, 32.5 µM; in the test with MALME-3M melanoma, above 100 µM; in the test with MDA-MB-231 breast, above 100 µM. The TGI in the test on MDA-MB-435 is above 100 µM; with NCI-H23 lung it was above 100 µM; in the test on NCI-H460 lung it was above 54.6 µM; with NCI-H522 lung, above 100 µM; in the test on SF-539 CNS, above 73.6 µM; in the test with SK-MEL-2 melanoma it was above 100 µM. Moreover, the TGI with SK-OV-3 ovarian and with SNB-75 CNS was above 100 µM throughout.
On to `CC(=O)c1sc(=N)n(-c2c(C)cccc2C)c1C`, for which the TGI in the test with ACHN renal, with BT-549 breast, in the test on HL-60(TB) leukemia, in the test on LOX IMVI melanoma, with MALME-3M melanoma and in the test with MDA-MB-231 breast was above 100 µM each time. In addition, the TGI in the test on MDA-MB-435, in the test on NCI-H23 lung, in the test with NCI-H460 lung, with NCI-H522 lung, in the test on SF-539 CNS and in the test on SK-MEL-2 melanoma was above 100 µM each time. The TGI in the test on SK-OV-3 ovarian and in the test on SNB-75 CNS was above 100 µM in each case.
Regarding `O=C1c2ccccc2C(=O)c2oc(Br)cc21`, the TGI is 3.22 µM in the test on ACHN renal; 3.11 µM with BT-549 breast; 1.17 µM in the test on HL-60(TB) leukemia; above 100 µM in the test on LOX IMVI melanoma; 0.274 µM in the test with MALME-3M melanoma; 7.32 µM in the test on MDA-MB-231 breast. Besides, the TGI came to 0.311 µM in the test on MDA-MB-435; 0.463 µM in the test with NCI-H23 lung; 2.64 µM with NCI-H460 lung; 3.04 µM in the test with NCI-H522 lung; 1.84 µM in the test on SF-539 CNS; 1.73 µM in the test on SK-MEL-2 melanoma. The TGI in the test with SK-OV-3 ovarian stood at 6.61 µM; in the test with SNB-75 CNS, 0.684 µM.
As to `N#Cc1sc2c(c1O)c(=O)n(-c1ccccc1)c(=S)n2-c1ccccc1`, the TGI in the test with ACHN renal, with BT-549 breast, in the test on HL-60(TB) leukemia, in the test with LOX IMVI melanoma, in the test on MALME-3M melanoma and in the test on MDA-MB-231 breast was above 100 µM in each case. Also, the TGI with MDA-MB-435, with NCI-H23 lung, in the test with NCI-H460 lung, in the test on NCI-H522 lung, with SK-MEL-2 melanoma and in the test with SNB-75 CNS was above 100 µM in each case.
In the case of `CC(=O)O[C@@H](C1C[C@@H](C)[C@H]2[C@@](O)(O1)[C@H](O)[C@@]1(C)C3=CC[C@H]4C(C)(C)[C@@H](OC5OCC(O)C(O)C5O)CC[C@@]45C[C@@]35CC[C@]21C)C(C)(C)O` (stereo not given in full), the TGI with ACHN renal worked out at 47.2 µM; in the test with BT-549 breast, 80.8 µM; in the test with HL-60(TB) leukemia it was 15.3 µM; in the test with LOX IMVI melanoma, 42.4 µM; in the test with MALME-3M melanoma, 51 µM; in the test with MDA-MB-231 breast, 37.2 µM. Further, the TGI worked out at 53.3 µM with MDA-MB-435; 49 µM in the test with NCI-H23 lung; 40.6 µM with NCI-H460 lung; 36.9 µM with NCI-H522 lung; 30.3 µM with SF-539 CNS; 36.9 µM in the test with SK-MEL-2 melanoma. Also, the TGI in the test on SK-OV-3 ovarian was 63.9 µM.
With `CC(=O)c1cc(C)n2c1CS[C@@H]2c1ccccc1`, the TGI in the test with ACHN renal, in the test on BT-549 breast, in the test on HL-60(TB) leukemia, in the test with LOX IMVI melanoma, with MALME-3M melanoma and in the test on MDA-MB-231 breast was above 100 µM each time. Further, the TGI in the test with MDA-MB-435, with NCI-H23 lung, with NCI-H522 lung, in the test on SK-MEL-2 melanoma, in the test on SK-OV-3 ovarian and in the test on SNB-75 CNS was above 100 µM throughout.
For `Cc1ncc([N+](=O)[O-])n1CCNC(=O)Cn1c([N+](=O)[O-])cnc1C`, the TGI in the test on ACHN renal, with BT-549 breast, with HL-60(TB) leukemia, with MALME-3M melanoma, in the test on MDA-MB-231 breast and in the test with MDA-MB-435 was above 100 µM in each case. The TGI with NCI-H23 lung, in the test on NCI-H460 lung, with NCI-H522 lung, with SF-539 CNS, with SK-MEL-2 melanoma and in the test on SK-OV-3 ovarian was above 100 µM each time. Moreover, in the test on SNB-75 CNS, the TGI was above 100 µM.
Take `O=C(/C=C(\O)c1ccccc1)c1cc(-c2ccccc2)n(-c2ccccc2)n1`: the TGI in the test with ACHN renal was 23.9 µM; with BT-549 breast it was 26.1 µM; with HL-60(TB) leukemia, above 100 µM; with LOX IMVI melanoma, above 100 µM; in the test on MALME-3M melanoma, 45.5 µM; with MDA-MB-231 breast, 64.4 µM. Further, the TGI with MDA-MB-435 is above 100 µM; in the test on NCI-H23 lung, above 100 µM; with NCI-H460 lung, 98.4 µM; in the test with NCI-H522 lung, 42.4 µM; in the test on SF-539 CNS, 72.3 µM; in the test on SK-MEL-2 melanoma it was above 100 µM. Moreover, the TGI in the test with SK-OV-3 ovarian was above 100 µM.
With `CC1OC(OC2C(Oc3cc(O)c4c(c3)O[C@H](c3ccc(O)cc3)CC4=O)OC(CO)C(O)C2O)C(O)C(O)C1O` (stereo not given in full), the TGI with ACHN renal, in the test with BT-549 breast, in the test with HL-60(TB) leukemia, in the test on LOX IMVI melanoma, with MALME-3M melanoma and in the test with MDA-MB-231 breast was above 100 µM in each case. The TGI in the test with MDA-MB-435, in the test on NCI-H23 lung, in the test on NCI-H522 lung, in the test on SF-539 CNS, with SK-MEL-2 melanoma and in the test with SK-OV-3 ovarian was above 100 µM each time. This molecule registered a TGI with SNB-75 CNS above 100 µM.
As for `O=C(NNC(=O)c1ccccc1O)c1ccc(O)cc1`, the TGI is above 100 µM with BT-549 breast; above 100 µM in the test on HL-60(TB) leukemia; above 100 µM with LOX IMVI melanoma; above 100 µM in the test on MALME-3M melanoma; 69.7 µM in the test with MDA-MB-231 breast; above 100 µM in the test on MDA-MB-435. Further, the TGI with NCI-H460 lung is above 100 µM; with NCI-H522 lung, 56.7 µM; in the test with SF-539 CNS, above 100 µM; in the test on SK-MEL-2 melanoma it was 94.7 µM; with SK-OV-3 ovarian it was above 100 µM; in the test with SNB-75 CNS, above 100 µM.
